Entries after “also recorded” stand apart in the source; their conditions may differ. No end group written: not given here.
Assays:
Fgr hyphae = assay type: cell-based, Fusarium graminearum
hyphal cells = assay type: cell-based
Fov hyphae = assay type: cell-based, Fusarium oxysporum f. sp vasinfectum

Row | Substance | Permeability index (Fgr hyphae) | Permeabilizing (hyphal cells) | Permeability index (Fov hyphae) | permeabilization of Fov hyphae (SYTOX green uptake), in words (Fov hyphae) | permeabilization of Fgr hyphae (SYTOX green uptake), in words (Fgr hyphae)
1 | HXL001: Class I plant defensin, Zea mays, mature domain SEQ ID NO: 3 (RHCLSQSHRFKGLCMSSNNCANVCETQNFPGGECKAEGATRKCFCKKIC; HXL001 Zea mays mature domain) | 0.9 | Yes | – | – | –
2 | HXL002: Class I plant defensin, Triticum aestivum, mature domain SEQ ID NO: 6 (RDCLSQSHKFKGACLSSSNCAAVCRTENFPDGECHTHNFARKCFCKRAC; HXL002 Triticum aestivum mature domain) | 1.0 | Yes | 0.9 | able to permeabilize Fov hyphae; also recorded: permeabilizing | significantly more permeabilisation of Fgr hyphae; also recorded: permeabilizing
3 | HXL004: Class I plant defensin, Nicotiana benthamiana, mature domain SEQ ID NO: 12 (RTCESQSHRFKGLCFSRSNCASVCHTEGFNGGHCRGFRRRCFCTRHC; HXL004 Nicotiana benthamiana mature domain aa) | 1.6 | Yes | – | – | significantly more permeabilisation of Fgr hyphae; also recorded: permeabilizing
4 | HXL005: Class I plant defensin, Taraxacum kok-saghyz, mature domain SEQ ID NO: 15 (KMCQTTSHAFSCVNDSGCSGSCEKQGFASGKCDGVRRRCTCYKKC; HXL005 Taraxacum kok-saghyz mature domain) | – | No | – | – | –
5 | HXL007: Class I plant defensin, Cyamopsis tetragonoloba, mature domain SEQ ID NO: 21 (RTCESLADTYRGPCFTDGSCDDHCKNKEHLISGRCRNDFRCWCTRNC; HXL007 Cyamopsis tetragonoloba mature domain) | – | Yes | 1.2 | able to permeabilize Fov hyphae; also recorded: permeabilizing | –
6 | HXL008: Class I plant defensin, Picramnia pentandra, mature domain SEQ ID NO: 24 (KVCTKPSKFFKGLCGTDGACTTACRKEGLHSGYCQLKGFLNSVCVCRKHC; HXL008 Picramnia pentandra mature domain aa) | 0.9 | Yes | 0.8 | able to permeabilize Fov hyphae; also recorded: permeabilizing | significantly more permeabilisation of Fgr hyphae; also recorded: permeabilizing
7 | HXL009: Class I plant defensin, Zea mays, mature domain SEQ ID NO: 27 (TVCMRHNNFYHGPCMSNKDCANSCVQHNLGVGGYCRGKIPFNKECMCTFEC; HXL009 Zea mays mature domain aa) | 0.4 | No | – | – | non-permeabilizing
8 | HXL013: Class I plant defensin, Glycine max, mature domain SEQ ID NO: 39; Table 2 gives SBI6 the same SEQ ID NO (KDCLTRRHGFQGRCLFDRQCAHVCRSDGPIGGQCRGPLRKCFCSRPC; HXL013 Glycine max mature domain aa) | 1.4 | Yes | – | – | permeabilizing
9 | HXL015: Class I plant defensin, Oryza sativa, mature domain SEQ ID NO: 45 (RHCLSQSHRFKGMCVSSNNCANVCRTESFPDGECKSHGLERKCFCKKVC; HXL015 Oryza sativa mature domain aa) | – | No | – | – | –
10 | HXL021: Class I plant defensin, Arachis hypogaea, mature domain SEQ ID NO: 63 (ATCENLADTYRGPCFTTGSCDDHCKNKEHLLSGRCRDDFRCWCTRNC; HXL021 Arachis hypogaea mature domain aa) | 0.5 | No | – | – | non-permeabilizing
11 | HXP4: artificial variant defensin, SEQ ID NO: 70 (RECKTESHRFKGPCITKPPCRKACISEKFTDGHCSKILRRCLCTKPC; Amino acid sequence of HXP4 (NaD2 Loop1B [NaD2L1B] in NaD1)) | 1.3 | Yes | 0.7 | able to permeabilize Fov hyphae; also recorded: permeabilizing | significantly more permeabilisation of Fgr hyphae; also recorded: permeabilizing
12 | HXP34: artificial variant defensin, SEQ ID NO: 71 (RECKTESQHHSFPCITKPPCRKACISEKFTDGHCSKILRRCLCTKPC; Amino acid sequence of HXP34 (Zea2 Loop1B [Zea2L1B] in NaD1)) | – | Yes | – | – | –
13 | HXP35: artificial variant defensin, SEQ ID NO: 72 (RECKTESDTYRGVCITKPPCRKACISEKFTDGHCSKILRRCLCTKPC; Amino acid sequence of HXP35 (PsD1 Loop1B [PsDL1B] in NaD1)) | – | Yes | – | – | –
14 | Hordothionin: Class I plant defensin, Hordeum vulgare, accession P20230 | 0.4 | No | – | – | non-permeabilizing
15 | NaD1: Class II plant defensin, Nicotiana alata, accession Q8GTM0; positive control of the permeabilization assay (RECKTESNTFPGICITKPPCRKACISEKFTDGHCSKILRRCLCTKPC; UniProt Q8GTM0 26-72, looked up) [reference compound] | 1.0 | Yes | 1.0 | able to permeabilize Fov hyphae; also recorded: permeabilizing | significantly more permeabilisation of Fgr hyphae; also recorded: permeabilizing
16 | NoD173: Class II plant defensin, Nicotiana occidentalis, mature domain SEQ ID NO: 98 (RQCKAESNTFTGICIAKPPCRQACIREKFTDGHCSKVLRRCLCTKRC; NoD173 Nictoniana occidentalis) | – | Yes | – | – | –
17 | RsAFP2: Class I plant defensin, Raphanus sativus, accession P30230 (QKLCQRPSGTWSGVCGNNNACKNQCIRLEKARHGSCNYVFPAHKCICYFPC; ends and bridges not checked; cysteine pairing not given here; UniProt P30230 30-80, looked up) | 0.3 | No | – | – | non-permeabilizing
18 | VP42: Class I plant defensin, Triticum aestivum, mature domain SEQ ID NO: 81 (RHCESQSHRYRGACWRDDNCKHVCNTEGFPSGKCKFHGFESKCVCTKPC; VP42 mature domain) | – | No | – | – | –
19 | VP45: Class I plant defensin, Zea mays, mature domain SEQ ID NO: 83 (TVCMRHNNFYHGPCMSNKDCANSCVQHNLGVGGYCRGKIPFNKECMCTFEC; VP45 mature domain) | – | No | – | – | –
20 | VP135: Class I plant defensin, Picramnia pentandra, mature domain SEQ ID NO: 85 (RICSSLSHGYKGPCASDHNCALVCRNEGFSGGDCHGLRRRCFCTKAC; VP135 mature domain) | – | No | – | – | –

— patent publication US10357536B2, “Anti-pathogenic methods” (Hexima Limited, priority 2012, dated 2019)
